Measured values taken from patent US20230227484A1, “PYRIMIDINE COMPOUND AS AXL INHIBITOR” (NANJING CHIA TAI TIANQING PHARMACEUTICAL CO., LTD., priority 2020, published 2023).

Key:
[1] = Pharmacokinetic study of compounds on ICR mice; format: in vivo; settings: mouse, po, male ICR mice, plasma; for Cmax / Tmax / half-life: 10 mg-kg^1 by gavage; for AUC(0-t): 10 mg/kg-kg^1 by gavage, read-out: AUC0-24
Description: Each compound is prepared with DMSO into a 10 mg/mL stock solution.
Preparation of mixed solvent: Tween 80: PEG400: Water=1:9:90 (v/v/v)
450 μl of the compound DMSO stock solution with a concentration of 10 mg/nmL is accurately sucked into a glass bottle, and added with an appropriate volume of DMSO and mixed solvent, wherein a ratio of the solvent in the final formulation is DMSO: mixed solvent (v/v)=10:90. The mixed solution is vortexed (or ultrasonically treated), and dispersed uniformly to obtain 4.5 mL. administration test solutions with a concentration of 1 mg/nL, respectively.
Male 6-10 week old ICR mice (sourced from: Beijing Vital River Laboratory Animal Technology Co., Ltd.) are taken, 6 mice in each group. The mice are fasted overnight and fed 4 h after the administration. On the day of the experiment, the mice are administrated with 10 mg-kg^1 of compound test solution by gavage. After administration, about 100 μL of blood is harvested from the orbits of the mice at 0 min, 5 mmn, 15 mmn, 30 min, 14 h 2 h, 4 h, 8 h, and 24 h, and placed in EDTA-K2 anticoagulant tubes. The whole blood sample is centrifuged at 1500 to 1600 g for 10 mm, and the plasma obtained by separation is stored in a refrigerator at −40 to −20° C. for biological sample analysis. The blood drug concentration is determined by an LC-MS/MS method.
A non-compartmental model in Pharsight Phoenix 7.0 is used to calculate pharmacokinetic parameters. The specific results are shown in 5 the table below.

[2] = tested on: human acute monocytic leukemia cell MV-4-11 xenograft tumor; assay: In-vivo efficacy of compound for MV4-11 xenograft tumor model of nude mouse; settings: MV4-11, po, intragastric 5 mg/kg/d, once a day, end of experiment, MV-4-11 xenograft nude mice; for response vs control in vivo at 5 mg/kg/day: read-out: Relative tumor proliferation rate (% T/C); for inhibition in vivo at 5 mg/kg/day: read-out: Tumor growth inhibition rate (TGI %)
Description: Inhibitory effects of a compound and a positive drug on the in-vivo tumor growth of a xenograft tumor model of a nude mouse on human acute monocytic leukemia cell MV-4-11 are tested.
MV-4-11 cells in a logarithmic growth phase are harvested, resuspended after cell counting, and adjusted in cell concentration to 7.0×10^7 cells/mL. The resuspended solution is injected into the right armpit of the nude mice subcutaneously. Each animal is inoculated with 200 μL (14×10^6 cells) of the suspended solution to establish a MV-4-11 xenograft tumor model. Afer the tumor volume reaches 100-300 mm^3, tumor-bearing mice in good health and similar tumor volume are selected.
The compound and the positive drug are vortexed with a suitable solvent and then ultrasonicated to completely dissolve the compound. Then, an appropriate volume of citric acid buffer is slowly added, and the mixed solution is vortexed to make the solution mixed uniformly to obtain administrative formulations having concentrations of 0.1, 0.5, and 1 mg-mL^−1.
Solvent control group: PEG400 & citric acid buffer (20:80, v:v).
The modeled mice are randomly divided into groups (n=6), and administrated with the relevant compounds and positive drugs on the day of grouping. After 21 days or after the tumor volume of the solvent control group reaches 2000 mm^3, the experiment is terminated (whichever reaches the index first), and the administration volume is 10 mL-kg^−1. Both the compound and the positive drug are administered by gavage, once a day. After the experiment starts, the tumor diameter and animal body weight are measured twice a week, and the tumor volume is calculated.
The tumor volume(TV) calculation formula is: tumor volume(mm^3)=l×w^2/2,
The calculation formula of relative tumor volume(RTV) is: RTV=TVt/TVinitial
The calculation formula of relative tumor proliferation rate (% T/C) is: % T/C=100%×(RTVT/RTVC)

AXL kinase = biological target: T1, AXL kinase (Homo sapiens, UniProt P30530); assay: Inhibitory activity of compound against AXL kinase (HTRF KinEASE); format: biochemical; settings: AXL enzyme (Carna, 08-107), ATP 15 μM; "<" means below detection limit of the test
T1 construct: purchased Carna 08-107
T1 sequence (P30530 473-894 limits assumed): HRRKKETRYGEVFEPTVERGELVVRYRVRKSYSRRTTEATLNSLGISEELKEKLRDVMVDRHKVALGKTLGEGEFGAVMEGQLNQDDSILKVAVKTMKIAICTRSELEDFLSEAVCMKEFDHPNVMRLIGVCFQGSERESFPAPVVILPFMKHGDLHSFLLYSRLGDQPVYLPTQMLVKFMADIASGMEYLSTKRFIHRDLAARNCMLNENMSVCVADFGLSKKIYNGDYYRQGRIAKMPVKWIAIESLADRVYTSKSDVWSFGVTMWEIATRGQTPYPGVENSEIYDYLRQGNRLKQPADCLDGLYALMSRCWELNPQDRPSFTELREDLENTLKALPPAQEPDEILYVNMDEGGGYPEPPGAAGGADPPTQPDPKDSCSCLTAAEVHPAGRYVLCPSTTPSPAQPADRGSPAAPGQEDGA
Outline: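 AXL enzyme (final 0.016 ng/uL) was preincubated with compound (8 concentrations from 1 μM, ½ log steps) for 15 min at room temperature, then reacted with TK Substrate 3-biotin (final 1) and ATP (final 15 μM) for 45 min at 25° C. Phosphorylation was read by HTRF (TK antibody-cryptate, streptavidin-XL665, 1 h); IC50 from variable-slope dose-response fit.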

[3] = tested on: MV-4-11 (human myeloid monocytic leukemia cell line); assay: Proliferation inhibition activity of compounds to MV-4-11 cells (CellTiter-Glo); format: cell-based; settings: MV4-11 cells, 72 h dosing
Description: MV-4-11 (human myeloid monocytic leukemia cell line, culture medium: JIMDM+10% fetal bovine serum) is purchased from Cobioer Biosciences Co., Ltd and cultured in a 5% C02 incubator at 37° C. The cells in a logarithmic growth phase are plated in a 96-well plate at cell densities of 8000 cells/well, 6000 cells/well, 2000 cells/well, 2000 cells/well and 3000 cells/well, and a blank control group is set at the same time.
A compound to be tested and the positive drug are dissolved in dimethyl sulfoxide to prepare a 10 mM stock solution, which is then stored in −80° C. refrigerator for long-time storage. After the cells are plated for 24 h, the 10 mM compound stock solution is diluted with dimethyl sulfoxide to obtain a working solution having a 200-fold concentration (the highest concentration is 200 or 2000 μM, a 3-fold gradient, a total of 10 concentrations), and 3 μL of the working solution of each concentration is added to 197 μL of complete medium, and diluted into a working solution of 3-fold concentration. 50 μL of the working solution is then taken and added to a 100 μL cell culture medium (a final concentration of dimethyl sulfoxide is 0.5%, v/v), and two complex holes are set for each concentration. After 72 h of dosing treatment, 50 μl of CellTiter-Glo® (purchased from Promega) is added to each well. Fluorescence signals are measured on Envision (PerkinElmer) according to an operating procedure of the specification. GraphPad Prism 5 software log(inhibitor) vs. response-Variable slope is used to fit a dose-response curve, so as to obtain the IC50 value of the compound to the inhibition of cell-proliferation. The calculation formulation of the inhibition rate is as follows: […]
wherein: signal value of subject: a mean fluorescence signal of cell+medium+compound group; signal value of blank group: a mean fluorescence signal of medium group (containing 0.5% DMSO); signal value of negative control group: a mean fluorescence signal of cell+medium group (containing 0.5% DMSO).

[4] = tested on: human acute monocytic leukemia cell MV-4-11 xenograft tumor; assay: In-vivo efficacy of compound for MV4-11 xenograft tumor model of nude mouse; settings: MV4-11, po

Cmax [1]	Tmax [1]	half-life [1]	AUC(0-t) [1]	IC50 (AXL kinase)	IC50 [3]	SMILES	response vs control in vivo at 5 mg/kg/day [2]	inhibition in vivo at 5 mg/kg/day [2]	inhibition in vivo at 20 mg/kg/day ([4]; intragastric 20 mg/kg/d, once a day, end of experiment, MV-4-11 xenograft nude mice, read-out: Tumor growth inhibition rate (TGI %))	response vs control in vivo at 20 mg/kg/day ([4]; read-out: Relative tumor proliferation rate (% T/C))
0.249 µg/mL	2 h	3.03 h	2.3 µg·h/mL	0.19 nM		Clc1cnc(Nc2ccc3c(c2)CC[C@@H](N2CCCC2)CC3)nc1Nc1ccccc1-c1ncc[nH]1 [Example 18, (S)—N^4-(2-(1H-imidazol-2-yl)phenyl)-5-chloro-N^2-(7-(pyrrolidin-1-yl)-6,7,8,9-tetrahydro-5H-benzo[7]annulen-2-yl)pyrimidine-2,4-diamine]	37%	71%		
0.226 µg/mL	8 h		3 µg·h/mL	0.31 nM		CN1Cc2cccc(Nc3nc(Nc4ccc5c(c4)CC[C@@H](N4CCCC4)CC5)ncc3Cl)c2C1=O [Example 28, (S)-7-((5-chloro-2-(((7-(pyrrolidin-1-yl)-6,7,8,9-tetrahydro-5H-benzo[7]annulen-2-yl)amino))pyrimidin-4-yl)amino)-2-methylisoindolin-1-one]	5.9%	104%		
0.419 µg/mL	0.5 h	2.17 h	1.07 µg·h/mL	2.6 nM	4.53 nM	CP(C)(=O)c1cc(F)ccc1Nc1nc(Nc2ccc3c(c2)CC[C@@H](N2CCCC2)CC3)ncc1Cl [Example 51, (S)-(2-((5-chloro-2-((7-(pyrrolidin-1-yl)-6,7,8,9-tetrahydro-5H-benzo[7]annulen-2-yl)amino)pyrimidin-4-yl)amino)-5-fluorophenyl)dimethyl phosphine oxide]				
0.429 µg/mL	0.5 h	2.42 h	1.15 µg·h/mL	1.06 nM	5.32 nM	CP(C)(=O)c1cc(Cl)ccc1Nc1nc(Nc2ccc3c(c2)CC[C@@H](N2CCCC2)CC3)ncc1Cl [Example 52]				
					208 nM	Nc1nc(Nc2ccc3c(c2)CC[C@@H](N2CCCC2)CC3)nn1-c1cc2c(nn1)-c1ccccc1CCC2 [Positive drug 1 (BGB324), BGB324]			32%	71%
0.0268 µg/mL	0.25 h		0.0522 µg·h/mL		12 nM	CN1CCN(Cc2ccc(Nc3ncc(Cl)c(Nc4ccccc4S(=O)(=O)N(C)C)n3)cc2)CC1 [Positive drug 2 (TP0903), TP0903, reference compound]	42%	62%		
